Experimental data: PubChem BioAssay AID2060507 (Molecular Pharmacology Branch, DTP, NCI, 2025)

System: 519858-162-T-J1-PDC complex spheroid viability
Assay: Anticancer human tumor 519858-162-T-J1-PDC patient-derived colon adenocarcinoma cell line growth inhibition [GQUAD]
Settings: for IC50: curve of first compound; for viability, T/C: stronger effect = lower value
In short: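 Tumor cells were grown as complex spheroids with HUVEC endothelial cells and mesenchymal stem cells as stroma. G-quadruplex stabilizers were combined with targeted agents over half-log dilutions from near the clinical Cmax, or from 10 microM.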

[1] = second compound 0.0316 µM, first compound 0.0316 µM
[2] = second compound 0.0316 µM, first compound 0.1 µM
[3] = second compound 0.0316 µM, first compound 0.316 µM
[4] = second compound 0.0316 µM, first compound 1 µM
[5] = second compound 0.0316 µM, first compound 3.16 µM
[6] = second compound 0.0316 µM, first compound 10 µM
[7] = second compound 0.1 µM, first compound 0.0316 µM
[8] = second compound 0.1 µM, first compound 0.1 µM
[9] = second compound 0.1 µM, first compound 0.316 µM
[10] = second compound 0.1 µM, first compound 1 µM
[11] = second compound 0.1 µM, first compound 3.16 µM
[12] = second compound 0.1 µM, first compound 10 µM
[13] = second compound 0.316 µM, first compound 0.0316 µM
[14] = second compound 0.316 µM, first compound 0.1 µM
[15] = second compound 0.316 µM, first compound 0.316 µM
[16] = second compound 0.316 µM, first compound 1 µM
[17] = second compound 0.316 µM, first compound 3.16 µM
[18] = second compound 0.316 µM, first compound 10 µM
[19] = second compound 1 µM, first compound 0.0316 µM
[20] = second compound 1 µM, first compound 0.1 µM
[21] = second compound 1 µM, first compound 0.316 µM
[22] = second compound 1 µM, first compound 1 µM
[23] = second compound 1 µM, first compound 3.16 µM
[24] = second compound 1 µM, first compound 10 µM
[25] = second compound 3.16 µM, first compound 0.0316 µM
[26] = second compound 3.16 µM, first compound 0.1 µM
[27] = second compound 3.16 µM, first compound 0.316 µM
[28] = second compound 3.16 µM, first compound 1 µM
[29] = second compound 3.16 µM, first compound 3.16 µM
[30] = second compound 3.16 µM, first compound 10 µM
[31] = second compound 10 µM, first compound 0.0316 µM
[32] = second compound 10 µM, first compound 0.1 µM
[33] = second compound 10 µM, first compound 0.316 µM
[34] = second compound 10 µM, first compound 1 µM
[35] = second compound 10 µM, first compound 3.16 µM
[36] = second compound 10 µM, first compound 10 µM
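Also: spheroids exposed to compounds for 7 days.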
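For viability, T/C in this document: 100% = DMSO vehicle control viability.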

COc1cc(C2c3cc4c(cc3C(OC3OC5COC(C)OC5C(O)C3O)C3COC(=O)C23)OCO4)cc(OC)c1O (centres undefined) + Cc1[nH]c2ccc(F)cc2c1-c1nc2c3cccnc3c3ncccc3c2[nH]1
IC50 (second compound 0.0316 µM): > 10 µM
IC50 (second compound 0.1 µM): > 10 µM
IC50 (second compound 0.316 µM): > 10 µM
IC50 (second compound 1 µM): > 10 µM
IC50 (second compound 3.16 µM): > 10 µM
IC50 (second compound 10 µM): > 10 µM
viability, T/C [1]: 114%
viability, T/C [2]: 99.6%
viability, T/C [3]: 93.8%
viability, T/C [4]: 124%
viability, T/C [5]: 98.2%
viability, T/C [6]: 64.6%
viability, T/C [7]: 127%
viability, T/C [8]: 130%
viability, T/C [9]: 93.2%
viability, T/C [10]: 89.8%
viability, T/C [11]: 55.6%
viability, T/C [12]: 60.4%
viability, T/C [13]: 90.6%
viability, T/C [14]: 109%
viability, T/C [15]: 57.4%
viability, T/C [16]: 86.5%
viability, T/C [17]: 86.9%
viability, T/C [18]: 78.4%
viability, T/C [19]: 88.8%
viability, T/C [20]: 75.8%
viability, T/C [21]: 108%
viability, T/C [22]: 75.9%
viability, T/C [23]: 81%
viability, T/C [24]: 71.4%
viability, T/C [25]: 65.9%
viability, T/C [26]: 76.9%
viability, T/C [27]: 66.9%
viability, T/C [28]: 75%
viability, T/C [29]: 58.6%
viability, T/C [30]: 80.3%
viability, T/C [31]: 69.4%
viability, T/C [32]: 63.4%
viability, T/C [33]: 65.8%
viability, T/C [34]: 68.5%
viability, T/C [35]: 74.8%
viability, T/C [36]: 82.7%

CC1COCCN1c1cc(C2(S(C)(=N)=O)CC2)nc(-c2ccnc3[nH]ccc23)n1 (centres undefined) + CN(C)c1ccc(Nc2c3ccc(NC(=O)CCN4CCCC4)cc3nc3cc(NC(=O)CCN4CCCC4)ccc23)cc1
IC50 (second compound 0.0316 µM): > 10 µM
IC50 (second compound 0.1 µM): > 10 µM
IC50 (second compound 0.316 µM): > 10 µM
IC50 (second compound 1 µM): > 10 µM
IC50 (second compound 3.16 µM): > 10 µM
IC50 (second compound 10 µM): > 10 µM
viability, T/C [1]: 115%
viability, T/C [2]: 102%
viability, T/C [3]: 119%
viability, T/C [4]: 115%
viability, T/C [5]: 98.3%
viability, T/C [6]: 77.7%
viability, T/C [7]: 133%
viability, T/C [8]: 124%
viability, T/C [9]: 125%
viability, T/C [10]: 110%
viability, T/C [11]: 94.2%
viability, T/C [12]: 70%
viability, T/C [13]: 123%
viability, T/C [14]: 108%
viability, T/C [15]: 81.1%
viability, T/C [16]: 79.7%
viability, T/C [17]: 91.1%
viability, T/C [18]: 100%
viability, T/C [19]: 88.2%
viability, T/C [20]: 88.3%
viability, T/C [21]: 90.8%
viability, T/C [22]: 105%
viability, T/C [23]: 86.5%
viability, T/C [24]: 100%
viability, T/C [25]: 93.3%
viability, T/C [26]: 60.1%
viability, T/C [27]: 93.9%
viability, T/C [28]: 111%
viability, T/C [29]: 84.8%
viability, T/C [30]: 66.1%
viability, T/C [31]: 79.3%
viability, T/C [32]: 62.7%
viability, T/C [33]: 82.8%
viability, T/C [34]: 99.5%
viability, T/C [35]: 82.5%
viability, T/C [36]: 84.8%
